Experimental data published in patent publication US9206132B2, “Use of a novel aminopyridine derivative to prevent or treat cancer” (Medicinal Bioconvergence Research Center, priority 2012, dated 2015).

Tests used:
AIMP2-DX2 [1] = assay: AIMP2-DX2 luciferase assay in pGL-DX-2 transfected A549 lung cancer cells; conditions: A549 transfected with pGL-DX-2, cultured 24 hours, 4 hours treatment, lower = more inhibition, N.C (DMSO) 20089
Description: (§1) After 24 hours in culture, transfected lung cancer cells were treated with the compounds of the library. 4 hours later, luciferase activity was measured with a luminometer using a luciferase assay kit according to a manufacturer protocol (Promega, US).
(§2) Lung cancer cell lines A549 and H460 were transfected with pGL-DX-2, cultured for 24 hours, and treated with the newly synthesized compounds. After further culturing for 4 hours, luciferase activity was measured.

AIMP2-DX2 [2] = assay: AIMP2-DX2 luciferase assay in pGL2-DX2 transfected H460 lung cancer cells; conditions: H460 transfected with pGL-DX-2, cultured 24 hours, 4 hours treatment, lower = more inhibition, N.C (DMSO) 8627
Description: as §1, §2

SMILES	AIMP2-DX2 Activity in A549 cells (AIMP2-DX2 [1])	AIMP2-DX2 Activity in H460 cells (AIMP2-DX2 [2])
CCOC(=O)C(C)C(=O)Nc1ccc(Cl)cn1 (stereo not shown) [No. 1, ethyl 3-[(5-chloropyridin-2-yl)amino]-2-methyl-3-oxopropanoate]	5295	7668
CCOC(=O)CC(=O)Nc1cccc(C)n1 [No. 2, ethyl 3-[(6-methylpyridin-2-yl)amino]-3-oxopropanoate]	8070	7740
CCOC(=O)CC(=O)Nc1cnc2ccccc2c1 [No. 3, ethyl 3-oxo-3-(quinolin-3-ylamino)propanoate]	17967	5447
CCOC(=O)CC(=O)Nc1nc(C)ccc1C [No. 4, ethyl 3-[(3,6-dimethylpyridin-2-yl)amino]-3-oxopropanoate]	18252	4914
CCOC(=O)CC(=O)Nc1cc(O)ccn1 [No. 5, ethyl 3-[(4-hydroxypyridin-2-yl)amino]-3-oxopropanoate]	5721	4984
CCOC(=O)C(C)C(=O)Nc1cnc2ccccc2c1 (stereo not shown) [No. 6, ethyl 2-methyl-3-oxo-3-(quinolin-3-ylamino)propanoate]	6011	5083
CCOC(=O)C(C)C(=O)Nc1cccc(C)n1 (stereo not shown) [No. 7, ethyl 2-methyl-3-[(6-methylpyridin-2-yl)amino]-3-oxopropanoate]	6568	6082
CCOC(=O)CC(=O)Nc1ccc(Cl)cn1 [No. 8, ethyl 3-[(5-chloropyridin-2-yl)amino]-3-oxopropanoate]	8045	6348
